Measured values taken from the supplement of paper PMC10307832.

Legend:
Test in all cases: relative viability (nuclei count vs DMSO), 5 days (fraction); higher = more cells survive
GSK-J4 + Dasatinib = compound: CCOC(=O)CCNc1cc(N2CCc3ccccc3CC2)nc(-c2ccccn2)n1 [GSK-J4] + Cc1nc(Nc2ncc(C(=O)Nc3c(C)cccc3Cl)s2)cc(N2CCN(CCO)CC2)n1 [Dasatinib] (partner 0.075 µM)
In short: (§1)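 Medians of duplicate plates are given as relative viability. That measure is the nuclei count in treated wells divided by the count in vehicle wells. Counts were taken on 4× images of lung cancer cell lines in 1536-well plates, 5 days after pin-tool dosing the day after seeding with one drug alone or a fixed anchor-drug dose plus five library-drug doses (not always all listed) in √10 steps.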

AZ3146 + Trametinib = compound: CN1CCC(CC1)OC2=CC(=C(C=C2)NC3=NC=C4C(=N3)N(C(=O)N4C)C5CCCC5)OC [AZ3146] + CC(=O)Nc1cccc(-n2c(=O)n(C3CC3)c(=O)c3c(Nc4ccc(I)cc4F)n(C)c(=O)c(C)c32)c1 [Trametinib] (partner 0.02 µM)
In short: as §1

AZ3146 + Foretinib = compound: CN1CCC(CC1)OC2=CC(=C(C=C2)NC3=NC=C4C(=N3)N(C(=O)N4C)C5CCCC5)OC [AZ3146] + COc1cc2c(Oc3ccc(NC(=O)C4(C(=O)Nc5ccc(F)cc5)CC4)cc3F)ccnc2cc1OCCCN1CCOCC1 [Foretinib] (partner 0.25 µM)
In short: as §1

AZ3146 + Pictilisib = compound: CN1CCC(CC1)OC2=CC(=C(C=C2)NC3=NC=C4C(=N3)N(C(=O)N4C)C5CCCC5)OC [AZ3146] + CS(=O)(=O)N1CCN(Cc2cc3nc(-c4cccc5[nH]ncc45)nc(N4CCOCC4)c3s2)CC1 [Pictilisib] (partner 1 µM)
In short: as §1

What does the source list for NCI-H838?
relative viability (GSK-J4 + Dasatinib; first compound 0.5 µM): 0.325; relative viability (GSK-J4 + Dasatinib; first compound 1.581 µM): 0.24; relative viability (GSK-J4 + Dasatinib; first compound 5 µM): 0.23; relative viability (GSK-J4 + Dasatinib; first compound 15.81 µM): 0.266; relative viability (GSK-J4 + Dasatinib; first compound 50 µM): 0.275; relative viability (AZ3146 + Trametinib; first compound 0.08 µM): 0.553; relative viability (AZ3146 + Trametinib; first compound 0.253 µM): 0.467; relative viability (AZ3146 + Trametinib; first compound 0.8 µM): 0.462; relative viability (AZ3146 + Trametinib; first compound 2.53 µM): 0.481; relative viability (AZ3146 + Trametinib; first compound 8 µM): 0.227; relative viability (AZ3146 + Foretinib; first compound 0.08 µM): 1.06; relative viability (AZ3146 + Foretinib; first compound 0.253 µM): 1.09; relative viability (AZ3146 + Foretinib; first compound 0.8 µM): 0.954; relative viability (AZ3146 + Foretinib; first compound 2.53 µM): 1.03; relative viability (AZ3146 + Foretinib; first compound 8 µM): 0.788; relative viability (AZ3146 + Pictilisib; first compound 0.08 µM): 0.557; relative viability (AZ3146 + Pictilisib; first compound 0.253 µM): 0.467; relative viability (AZ3146 + Pictilisib; first compound 0.8 µM): 0.39; relative viability (AZ3146 + Pictilisib; first compound 2.53 µM): 0.387; relative viability (AZ3146 + Pictilisib; first compound 8 µM): 0.266

With NCI-H1793 as the cell line, how does the relative viability (GSK-J4 + Dasatinib; first compound 0.5 µM) read?
The relative viability was 0.433.

And the relative viability (GSK-J4 + Dasatinib; first compound 1.581 µM)?
Its relative viability is 0.365.

And the relative viability (GSK-J4 + Dasatinib; first compound 5 µM)?
The relative viability was 0.239.

And the relative viability (GSK-J4 + Dasatinib; first compound 15.81 µM)?
Its relative viability is 0.358.

What about the relative viability (GSK-J4 + Dasatinib; first compound 50 µM) of the same cell line?
Its relative viability is 0.414.

What about the relative viability (AZ3146 + Trametinib; first compound 0.08 µM) of the same cell line?
Its relative viability is 0.374.

And the relative viability (AZ3146 + Trametinib; first compound 0.253 µM)?
Its relative viability is 0.419.

And the relative viability (AZ3146 + Trametinib; first compound 0.8 µM)?
The relative viability was 0.393.

And the relative viability (AZ3146 + Trametinib; first compound 2.53 µM)?
Its relative viability is 0.515.

And the relative viability (AZ3146 + Trametinib; first compound 8 µM)?
The relative viability was 0.418.

What about the relative viability (AZ3146 + Foretinib; first compound 0.08 µM) of the same cell line?
The relative viability was 0.672.

What about the relative viability (AZ3146 + Foretinib; first compound 0.253 µM) of the same cell line?
Its relative viability is 0.699.

What about the relative viability (AZ3146 + Foretinib; first compound 0.8 µM) of the same cell line?
The relative viability was 0.755.

And the relative viability (AZ3146 + Foretinib; first compound 2.53 µM)?
Its relative viability is 0.686.

What about the relative viability (AZ3146 + Foretinib; first compound 8 µM) of the same cell line?
The relative viability was 0.316.

And the relative viability (AZ3146 + Pictilisib; first compound 0.08 µM)?
Its relative viability is 0.298.

And the relative viability (AZ3146 + Pictilisib; first compound 0.253 µM)?
The relative viability was 0.376.

What about the relative viability (AZ3146 + Pictilisib; first compound 0.8 µM) of the same cell line?
The relative viability was 0.278.

And the relative viability (AZ3146 + Pictilisib; first compound 2.53 µM)?
The relative viability was 0.469.

And the relative viability (AZ3146 + Pictilisib; first compound 8 µM)?
Its relative viability is 0.261.

Which results are given for NCI-H1355?
relative viability (GSK-J4 + Dasatinib; first compound 0.5 µM): 0.749; relative viability (GSK-J4 + Dasatinib; first compound 1.581 µM): 0.654; relative viability (GSK-J4 + Dasatinib; first compound 5 µM): 0.342; relative viability (GSK-J4 + Dasatinib; first compound 15.81 µM): 0.538; relative viability (GSK-J4 + Dasatinib; first compound 50 µM): 0.675; relative viability (AZ3146 + Trametinib; first compound 0.08 µM): 0.441; relative viability (AZ3146 + Trametinib; first compound 0.253 µM): 0.429; relative viability (AZ3146 + Trametinib; first compound 0.8 µM): 0.435; relative viability (AZ3146 + Trametinib; first compound 2.53 µM): 0.435; relative viability (AZ3146 + Trametinib; first compound 8 µM): 0.439; relative viability (AZ3146 + Foretinib; first compound 0.08 µM): 0.974; relative viability (AZ3146 + Foretinib; first compound 0.253 µM): 0.968; relative viability (AZ3146 + Foretinib; first compound 0.8 µM): 0.936; relative viability (AZ3146 + Foretinib; first compound 2.53 µM): 1.04; relative viability (AZ3146 + Foretinib; first compound 8 µM): 1.05; relative viability (AZ3146 + Pictilisib; first compound 0.08 µM): 0.334; relative viability (AZ3146 + Pictilisib; first compound 0.253 µM): 0.452; relative viability (AZ3146 + Pictilisib; first compound 0.8 µM): 0.525; relative viability (AZ3146 + Pictilisib; first compound 2.53 µM): 0.467; relative viability (AZ3146 + Pictilisib; first compound 8 µM): 0.512

How did the relative viability (GSK-J4 + Dasatinib; first compound 0.5 µM) turn out when HARA was run?
The relative viability was 0.267.

And the relative viability (GSK-J4 + Dasatinib; first compound 15.81 µM)?
Its relative viability is 0.24.

What about the relative viability (GSK-J4 + Dasatinib; first compound 50 µM) of the same cell line?
Its relative viability is 0.258.

And the relative viability (AZ3146 + Trametinib; first compound 0.08 µM)?
The relative viability was 0.708.

And the relative viability (AZ3146 + Trametinib; first compound 0.253 µM)?
The relative viability was 0.491.

And the relative viability (AZ3146 + Trametinib; first compound 0.8 µM)?
The relative viability was 0.634.

What about the relative viability (AZ3146 + Trametinib; first compound 2.53 µM) of the same cell line?
Its relative viability is 0.858.

And the relative viability (AZ3146 + Trametinib; first compound 8 µM)?
The relative viability was 0.623.

What about the relative viability (AZ3146 + Foretinib; first compound 0.08 µM) of the same cell line?
The relative viability was 0.823.

What about the relative viability (AZ3146 + Foretinib; first compound 0.253 µM) of the same cell line?
Its relative viability is 0.858.

And the relative viability (AZ3146 + Foretinib; first compound 0.8 µM)?
The relative viability was 0.895.

What about the relative viability (AZ3146 + Foretinib; first compound 2.53 µM) of the same cell line?
The relative viability was 0.895.

And the relative viability (AZ3146 + Foretinib; first compound 8 µM)?
The relative viability was 0.197.

What about the relative viability (AZ3146 + Pictilisib; first compound 0.08 µM) of the same cell line?
The relative viability was 0.264.

And the relative viability (AZ3146 + Pictilisib; first compound 0.253 µM)?
The relative viability was 0.537.

And the relative viability (AZ3146 + Pictilisib; first compound 0.8 µM)?
The relative viability was 0.387.

And the relative viability (AZ3146 + Pictilisib; first compound 2.53 µM)?
Its relative viability is 0.594.

And the relative viability (AZ3146 + Pictilisib; first compound 8 µM)?
Its relative viability is 0.244.

Which results are given for 201T?
relative viability (GSK-J4 + Dasatinib; first compound 0.5 µM): 0.576; relative viability (GSK-J4 + Dasatinib; first compound 1.581 µM): 0.6; relative viability (GSK-J4 + Dasatinib; first compound 5 µM): 0.639; relative viability (GSK-J4 + Dasatinib; first compound 15.81 µM): 0.391; relative viability (GSK-J4 + Dasatinib; first compound 50 µM): 0.348; relative viability (AZ3146 + Trametinib; first compound 0.08 µM): 0.718; relative viability (AZ3146 + Trametinib; first compound 0.253 µM): 0.728; relative viability (AZ3146 + Trametinib; first compound 0.8 µM): 0.73; relative viability (AZ3146 + Trametinib; first compound 2.53 µM): 0.677; relative viability (AZ3146 + Trametinib; first compound 8 µM): 0.685; relative viability (AZ3146 + Foretinib; first compound 0.08 µM): 0.945; relative viability (AZ3146 + Foretinib; first compound 0.253 µM): 1.02; relative viability (AZ3146 + Foretinib; first compound 0.8 µM): 1.08; relative viability (AZ3146 + Foretinib; first compound 2.53 µM): 1.13; relative viability (AZ3146 + Foretinib; first compound 8 µM): 1.06; relative viability (AZ3146 + Pictilisib; first compound 0.08 µM): 0.634; relative viability (AZ3146 + Pictilisib; first compound 0.253 µM): 0.643; relative viability (AZ3146 + Pictilisib; first compound 0.8 µM): 0.656; relative viability (AZ3146 + Pictilisib; first compound 2.53 µM): 0.707; relative viability (AZ3146 + Pictilisib; first compound 8 µM): 0.596

What does the source list for NCI-H23?
relative viability (GSK-J4 + Dasatinib; first compound 0.5 µM): 0.872; relative viability (GSK-J4 + Dasatinib; first compound 1.581 µM): 0.73; relative viability (GSK-J4 + Dasatinib; first compound 5 µM): 0.723; relative viability (GSK-J4 + Dasatinib; first compound 15.81 µM): 0.723; relative viability (GSK-J4 + Dasatinib; first compound 50 µM): 0.617; relative viability (AZ3146 + Trametinib; first compound 0.08 µM): 0.455; relative viability (AZ3146 + Trametinib; first compound 0.253 µM): 0.354; relative viability (AZ3146 + Trametinib; first compound 0.8 µM): 0.391; relative viability (AZ3146 + Trametinib; first compound 2.53 µM): 0.422; relative viability (AZ3146 + Trametinib; first compound 8 µM): 0.402; relative viability (AZ3146 + Foretinib; first compound 0.08 µM): 1.02; relative viability (AZ3146 + Foretinib; first compound 0.253 µM): 1.08; relative viability (AZ3146 + Foretinib; first compound 0.8 µM): 1.19; relative viability (AZ3146 + Foretinib; first compound 2.53 µM): 1.01; relative viability (AZ3146 + Foretinib; first compound 8 µM): 0.612; relative viability (AZ3146 + Pictilisib; first compound 0.08 µM): 0.453; relative viability (AZ3146 + Pictilisib; first compound 0.253 µM): 0.568; relative viability (AZ3146 + Pictilisib; first compound 0.8 µM): 0.483; relative viability (AZ3146 + Pictilisib; first compound 2.53 µM): 0.494; relative viability (AZ3146 + Pictilisib; first compound 8 µM): 0.451
